Measured values taken from US5446020A (Scios Nova Inc., priority 1993, dated 1995).

Key:
[1] = of the potency of native insulin; cited from earlier work
[2] = cited from earlier work
[3] = in vivo; cited from earlier work
rats = assay: euglycemic, hyperinsulinemic clamp with 3H-glucose tracer; type: in vivo; conditions: rat clamp
Experimental: Analogs of the invention can be tested in a euglycemic, hyperinsulinemic rat clamp using ^3 H-glucose as a tracer. In accordance with this technique, glucose is infused to maintain euglycemia. […] Using ^3 H-glucose, glucose utilization by the periphery (Rd) and glucose production by the liver (HGO) can be calculated under steady state conditions using the equation of Steel et al., Am. J. Physiol. (1956) 187:15-24, incorporated herein by reference.
Analogs were tested using the euglycemic, hyperinsulinemic clamp method. […] The exogenous glucose was infused at a rate sufficient to maintain euglycemia for the duration of the experiment. Additionally, [D-3-^3 H] glucose (tracer) is infused to assess glucose metabolism (i.e, glucose turnover). The steady state equation of Steele et al. (Am. J. Physiol. (1956) 187:15-241) was used to calculate hepatic glucose output and the rate of glucose disposal. Under steady state conditions, glucose (mg/ml) and ^3 H-glucose (dpm/ml) levels are constant. Under these conditions the rate of glucose appearance (Ra)=rate of glucose disappearance (Rd). At steady state Ra =Rd. Ra is further defined as the rate of glucose entering the glucose pool (approximately the blood volume and other extra-cellular volume). Ra is equal to the rate at which the liver is making glucose plus the rate of any exogenous glucose infusion. Rd is equal to the rate of glucose leaving the pool.
Three main parameters are used to assess the effects of the analogs. The rate of exogenous infusion (i.e., glucose infusion rate, GIR or M) estimates the potency of analog. […] Finally, hepatic glucose output (HGO), reflects the ability of the analogs to suppress the liver's production of glucose.
Four to five days prior to experimentation, 65 mg/kg of sodium pentobarbital was administered intraperitoneally to anesthetize rats. Catheters were inserted in the right jugular vein and left carotid artery. The catheters were routed subcutaneously to the dorsal region of the neck and exteriorized. […] Blood samples were taken from the jugular vein. […] At 10 minute intervals after starting hormone infusion, 50 μl blood samples were taken to determine the plasma glucose level. During infusion of hormone, a 30% glucose solution was infused at an empirically determined rate to maintain the basal glucose level.
Aliquots of whole blood were obtained at -20, -10 and 0 minutes before the clamp was started, and later at 70, 80, and 90 minutes into the clamp and the plasma glucose level determined. Glucose specific activity at these times was also determined as follows: [formula]
The blood was deproteinized with 10% TCA, centrifuged, and an aliquot of supernatant dried in a vacuum oven to evaporate off ^3 H2 O. The ^3 H-glucose levels in the sample were determined using a liquid scintillation counter. Basal Ra (glucose appearance rate) and clamp Ra were calculated by using steady state glucose specific activity (basal: -20, -10 and 0 minutes; clamp: 70, 80, 90 minutes) and the following equation: [formula] Under basal conditions, at steady state, Ra =Rd and Ra hepatic glucose output. Under clamp conditions, at a steady state, Ra =Rd, however under these conditions, Ra =hepatic glucose output plus exogenous glucose infusion rate. Hepatic glucose output under clamp conditions was determined by subtracting the glucose infusion rate from the calculated Rd.

Proinsulin: single chain peptide precursor of insulin synthesized in the islets of Langerhans
potency relative to native insulin when assayed in vitro [1]: 1-2% | potency relative to insulin in vivo ([2]; of the potency of insulin): about 15% | in vivo hepatoselectivity, more than that of insulin ([2]; relative to insulin per se): 50% | circulating half-life [3]: 30 min

Insulin: insulin, the comparator hormone infused in the rat clamp
GIR (glucose infusion rate) (rats; infusion 41.5 ng/kg/min): 1.7 ± 0.6 mg/kg/min | HGO (hepatic glucose output) (rats; infusion 41.5 ng/kg/min): 11.3 ± 0.3 mg/kg/min | Rd (rate of glucose disappearance) (rats; infusion 41.5 ng/kg/min): 13.0 ± 0.3 mg/kg/min | GIR (glucose infusion rate) (rats; infusion 83 ng/kg/min): 6.9 ± 0.8 mg/kg/min | GIR (glucose infusion rate) (rats; infusion 100 ng/kg/min): 8.8 ± 1.2 mg/kg/min | HGO (hepatic glucose output) (rats; infusion 100 ng/kg/min): 9.1 ± 0.7 mg/kg/min | Rd (rate of glucose disappearance) (rats; infusion 100 ng/kg/min): 17.8 ± 1.0 mg/kg/min | GIR (glucose infusion rate) (rats; infusion 166 ng/kg/min): 19.7 ± 0.5 mg/kg/min | HGO (hepatic glucose output) (rats; infusion 166 ng/kg/min): 6.4 ± 1.1 mg/kg/min | Rd (rate of glucose disappearance) (rats; infusion 166 ng/kg/min): 26.1 ± 0.8 mg/kg/min | GIR (glucose infusion rate) (rats; infusion 415 ng/kg/min): 30.8 ± 1.7 mg/kg/min | HGO (hepatic glucose output) (rats; infusion 415 ng/kg/min): 3.5 ± 0.7 mg/kg/min | Rd (rate of glucose disappearance) (rats; infusion 415 ng/kg/min): 34.3 ± 1.6 mg/kg/min | circulating half-life [3]: 4 min
